Tests used:
[1] = Body weight of rats treated with EGCG; type: in vivo, rat
Protocol: (§1) Animal. Adult Sprague-Dawley (SD; Harlan) rats (body weight for male: 170-190 g; for female: 125-145 g) and lean and obese Zucker (Charles River Laboratory) rats (body weight for lean male: 240-260 g; for obese male: 420-440 g) were given free access to a standard rat chow diet and water unless indicated. Animal experimental protocols were approved by the University of Chicago institutional animal care and use committee. Rats were maintained at an ambient temperature of 25° C. under a photoperiod of 12-hour light and 12-hour dark.
(§2) In vivo treatment. EGCG and other catechins (>98% pure) were isolated from green tea (Camellia sinensis) in our laboratory as described in Liao et al., Biochem. Biophys. Res. Commun. 214: 833-838 (1995). Catechins were dissolved in water for oral administration and in sterile phosphate buffered saline for ip injection. Rats in control groups received vehicle only. Testosterone propionate (TP) and 5α-dihydrotestosterone propionate (DHTP) were dissolved in sesame oil and 4 mg in 0.5 ml sesame oil (16 mg/kg body weight) was injected subcutaneously daily, when indicated.
(§3) Food-restricted, male SD rats were given 12 g rat chow daily, which was about 50% of the amount consumed daily by each control rat. The body weight and the amount of food and water consumed were monitored daily. Food consumption was monitored in rats caged in groups of 3 to 5 animals by weighing food pellets every 24 hr. On the final day, rats were anesthetized with methoxyflurane and blood was collected by heart puncture. Sera were collected after centrifugation (10,000 g for 20 min at 4° C.) for biochemical analysis.
(§4) Statistical analysis. Data are expressed as the mean±sem. The unpaired Student's t-test was used to examine differences between control and the EGCG-injected groups. Analysis of variance and Student-Newman-Keuls multiple range test were used to examine differences among various groups. A probability level of 0.05 was used to indicate significance.
Body weight of subjects treated with EGCG. […] In male SD rats, the effect of EGCG on body weight was dose-dependent. […] Male SD rats injected daily ip with 26 and 53 mg EGCG/kg bw gained body weight by 17-24% relative to their initial body weight, but lost 5-9% relative to the control after 7 days of treatment. Whereas, male SD rats daily injected ip with 85 mg EGCG/kg bw lost 15-21% of their body weight relative to their initial weight and 30-41% relative to the control after 7 days of treatment. Control rats continued growth and increased their body weight by 25-34% relative to their initial weight (see Table 1). Female SD rats injected daily ip with 12.5 mg EGCG (about 92 mg/kg bw) lost 10% of their body weight relative to their initial weight and 29% relative to the control after 7 days of treatment. Therefore, a dose of EGCG of 70-92 mg/kg body weight was used in most experiments.

[2] = type: in vivo, rat
Protocol: as §1, §2, §4
Weight change in accessory sexual organs and other organs. An effect of EGCG dosage on the weight of accessory sexual organs was also observed. The weight of androgen-sensitive organs, such as ventral and dorsolateral prostates, seminal vesicles, coagulating glands, and preputial glands were reduced by 50-70% after 7 days of treatment with EGCG (about 85 mg/kg bw). Weight changes in these sexual organs were modulated in a catechin-specific manner. Relative to control animals sacrificed at the start of the experiment, these accessory sexual organs (except preputial gland) in male SD rats were reduced by 30-50% in weight after 7 days of EGCG treatment. […]

[3] = system: sex hormones, leptin, IGF-I, insulin, LH and GH; assay: Change in levels of sex hormones, leptin, IGF-I, insulin, LH and GH (radioimmunoassay of serum); type: in vivo, rat
Protocol: as §1, §2, §3
(§5) Biochemical analysis. For biochemical analysis, commercially available radioimmunoassay kits for IGF-I and testosterone (Diagnostic Systems Laboratory, Inc), LH and GH (Amersham), leptin and insulin (Linco Research Inc), and corticosterone (ICN) and analytical kits for glycerol and triglyceride (Sigma) and fatty acids (Roche Molecular Biochemicals) were used. Proximate composition analysis of rats was performed by COVANCE Laboratory (Madison, Wis.). Complete blood count and serum chemistry (e.g., cholesterols, glucose, and enzymatic activities) were performed by the Animal Resource Center at the University of Chicago.
as §4
Change in levels of sex hormones, leptin, IGF-I, insulin, LH and GH. […] After 7 days of treatment with EGCG (about 85 mg/kg bw), circulating testosterone was reduced by about 70% in male SD rats. Similarly, the circulating level of 17β-estradiol was reduced by 34% in females after 7 days of EGCG treatment. […] However, the pulsatile nature of GH secretion prevented us from making definite conclusions about changes in circulating levels of GH in these rats. The effect of EGCG on sex hormones and various peptide hormones investigated was not mimicked by ECG which has one less hydroxyl group than EGCG.

[4] = Exogenous androgen (TP or DHTP) co-administered with EGCG; type: in vivo, rat
Protocol: as §2
Effects of exogenous androgen reverses the effect of EGCG on accessory sexual organs. To determine if the reduction in weight of accessory sexual organs was due to EGCG-induced reduction in androgen levels, we injected male SD rats with androgen and/or EGCG.

[5] = Change in serum nutrients and proximate body composition; type: in vivo, rat
Protocol: as §1, §2, §3, §5, §4
Change in serum nutrients and proximate body composition.

[6] = Effect of EGCG on food intake; type: in vivo, rat
Protocol: as §1
In vivo treatment. EGCG and other catechins (>98% pure) were isolated from green tea (Camellia sinensis) in our laboratory as described in Liao et al., Biochem. Biophys. Res. Commun. 214: 833-838 (1995). Catechins were dissolved in water for oral administration and in sterile phosphate buffered saline for ip injection. Rats in control groups received vehicle only. […]
Food-restricted, male SD rats were given 12 g rat chow daily, which was about 50% of the amount consumed daily by each control rat. The body weight and the amount of food and water consumed were monitored daily. Food consumption was monitored in rats caged in groups of 3 to 5 animals by weighing food pellets every 24 hr. […]

[7] = Change in composition of blood (serum chemistry, complete blood count); settings: rat, in vivo
Protocol: as §2, §3
Biochemical analysis. […]
Change in composition of blood. Male SD rats were treated with EGCG and ECG for 7 days and then their serum and whole blood was analyzed for various components. […]

[8] = female SD rats, 12.5 mg EGCG (about 92 mg/kg bw) ip daily, 7 days
[9] = male SD rats, 85 mg EGCG/kg bw ip daily, 7 days
[10] = male SD rats, 26 and 53 mg EGCG/kg bw ip daily, 7 days
[11] = male and female SD rats, 7 days
[12] = male SD and lean Zucker rats, within 7 to 8 days

O=C(OC1Cc2c(O)cc(O)cc2OC1c1cc(O)c(O)c(O)c1)c1cc(O)c(O)c(O)c1 (single isomer, unassigned; (-)) [EGCG, (−)epigallocatechin-3-gallate]
effectiveness in reducing body weight compared with 15 mg (about 85 mg/kg) ([1]; 5 or 10 mg EGCG (26 and 53 mg/kg body weight) injected daily, male SD rats): not effective or less effective
body weight loss ([1]; IP injection, SD male and female rats, within 2 to 7 days of treatment): caused acute body weight loss
body weight lost relative to initial weight [1, 8]: 10%
body weight lost relative to the control [1, 8]: 29%
body weight lost relative to initial weight [1, 9]: 15-21%
body weight lost relative to the control [1, 9]: 30-41%
body weight gain relative to initial body weight [1, 10]: 17-24%
body weight lost relative to the control [1, 10]: 5-9%
effect on body weight, dose dependence ([1]; male SD rats, ip daily): dose-dependent
reduction in weight of androgen-sensitive organs (ventral and dorsolateral prostates, seminal vesicles, coagulating glands, preputial glands) ([2]; about 85 mg/kg bw, 7 days, male rats): 50-70%
reduction in weight of estrogen-sensitive organs (uterus and ovary) ([2]; female SD rats, 7 days of treatment): about 50%
reduction in weight of accessory sexual organs (except preputial gland) relative to control animals sacrificed at the start of the experiment ([2]; male SD rats, 7 days of treatment): 30-50%
reduction of circulating level of 17β-estradiol ([3]; female SD rats, 7 days): 34%
serum level of GH ([3]; female SD rats, 7 days): reduced in females
dose dependence of effects on serum testosterone, leptin, IGF-I and insulin ([3]; male SD rats): Dose-dependent effects
serum level of GH ([3]; male SD rats, 7 days): increased in males
reduction of circulating testosterone ([3]; male SD rats, about 85 mg/kg bw, 7 days): about 70%
blood level of IGF-I [3, 11]: significant reduction
blood level of insulin [3, 11]: significant reduction
blood level of leptin [3, 11]: significant reduction
reduction of serum level of LH [3, 11]: 40-50%
EGCG-induced body weight loss, food intake restriction, decreases in circulating leptin, IGF-I, insulin and LH, increase in GH under androgen administration ([4]; male SD rats, androgen co-administered): androgen administration was not able to prevent
prostate weight loss ([4]; male rats injected daily with TP or DHTP (16 mg/kg sc)): did not cause prostate weight loss
percent water and protein content (proximate composition) ([5]; SD rats treated daily for 7 days): no change
carbohydrate content (proximate composition) ([5]; SD rats treated daily for 7 days, 2.5% in control): 1.3%
fat content (proximate composition) ([5]; SD rats treated daily for 7 days, 4.1% in control): 1.4%
decrease of abdominal fat [5, 12]: 20-35%
decrease of epididymal fat [5, 12]: not epididymal fat
decrease of subcutaneous fat [5, 12]: 40-70%
change in serum cholesterol ([5]; male SD rats): −20%
change in serum glucose ([5]; male SD rats): −32%
change in serum lipids ([5]; male SD rats): −15%
change in serum triglycerides ([5]; male SD rats): −46%
serum level of protein, fatty acids and glycerol ([5]; male SD rats): not altered
loss of abdominal fat ([5]; obese male Zucker rats, within 4 days): 20%
less food consumed than control rats ([6]; SD male and female rats, ip): 50-60%
effects of EGCG when administered orally compared with intraperitoneally ([6]; oral administration): diminished or absent
serum total protein, albumin, blood urea nitrogen, creatine, PO4 3−, Na+, K+, Ca2+, Cl−, lactate dehydrogenase, alanine aminotransferase, aspartate aminotransferase, γ-glutamyltranspeptidase [7]: Neither EGCG nor structurally-related ECG caused significant changes

(−)epicatechin-3-gallate [ECG, reference compound]
effect on sex hormones and various peptide hormones, compared with the effect of EGCG ([3]; rats): not mimicked

— patent US6610749B2, “Polyhydroxylated benzene-containing compounds” (ARCH Development Corporation, priority 2000, dated 2003)
